Laboratory results taken from US4443436A, “C-20-Modified macrolide derivatives of the macrolide antibiotics tylosin, desmycosin, macrocin, and lactenocin” (Eli Lilly and Company, priority 1982, dated 1984).
≈ marks a conversion by molar mass, not a printed value. Where two headings read alike, the source gives them in different places.

How the values were obtained:
[1] = system: Staphylococcus aureus X1.1; test: MIC, standard agar-dilution assay, Staphylococcus aureus X1.1; assay type: cell-based; details: Staphylococcus aureus, X1.1
[2] = system: Staphylococcus aureus V41; test: MIC, standard agar-dilution assay, Staphylococcus aureus V41; assay type: cell-based; details: Staphylococcus aureus, V41
[3] = system: Staphylococcus aureus X400; test: MIC, standard agar-dilution assay, Staphylococcus aureus X400; assay type: cell-based; details: Staphylococcus aureus, X400
[4] = system: Staphylococcus aureus S13E; test: MIC, standard agar-dilution assay, Staphylococcus aureus S13E; assay type: cell-based; details: Staphylococcus aureus, S13E
[5] = system: Staphylococcus epidermidis EPI1; test: MIC, standard agar-dilution assay, Staphylococcus epidermidis EPI1; assay type: cell-based; details: Staphylococcus epidermidis, EPI1
[6] = system: Staphylococcus epidermidis EPI2; test: MIC, standard agar-dilution assay, Staphylococcus epidermidis EPI2; assay type: cell-based; details: Staphylococcus epidermidis, EPI2
[7] = system: Streptococcus pyogenes C203; test: MIC, standard agar-dilution assay, Streptococcus pyogenes C203; assay type: cell-based; details: Streptococcus pyogenes, C203
[8] = system: Streptococcus pneumoniae Park I; test: microbe, parasite or virus in culture; assay type: cell-based
Streptococcus Group 9960 = test: MIC, standard agar-dilution assay, Streptococcus Group 9960; assay type: cell-based; details: GROUP9960; Streptococcus Group 9960; agar dilution; read-out: MIC
[9] = system: Haemophilus influenzae Holt; test: MIC, standard agar-dilution assay, Haemophilus influenzae Holt; assay type: cell-based
[10] = system: Haemophilus influenzae R252; test: MIC, standard agar-dilution assay, Haemophilus influenzae R252; assay type: cell-based; details: Haemophilus influenzae R252; ampicillin-resistant strain; read-out: MIC
Staphylococcus aureus = test: MIC, broth-dilution microtiter test, Staphylococcus aureus; assay type: cell-based
Text: (§1) The MIC's in Table X were obtained using conventional broth-dilution microtiter tests.

Streptococcus bovis 80 = test: MIC, broth-dilution microtiter test, Streptococcus bovis 80; assay type: cell-based; details: Streptococcus equinus
Text: as §1

[11] = system: Pasteurella multocida 17E; test: MIC, broth-dilution microtiter test, Pasteurella multocida 17E; assay type: cell-based
Text: as §1

[12] = system: Pasteurella multocida 60A; test: MIC, broth-dilution microtiter test, Pasteurella multocida 60A; assay type: cell-based
Text: as §1

[13] = system: Pasteurella hemolytica 22C; test: MIC, broth-dilution microtiter test, Pasteurella hemolytica 22C; assay type: cell-based; details: Pasteurella hemolytica 22C; broth-dilution microtiter; read-out: MIC
Text: as §1

Mycoplasma gallisepticum = test: MIC, broth-dilution microtiter test, Mycoplasma gallisepticum; assay type: cell-based; details: Mycoplasmoides gallisepticum
Text: as §1

Mycoplasma synoviae = test: MIC, broth-dilution microtiter test, Mycoplasma synoviae; assay type: cell-based; details: Mycoplasmopsis synoviae
Text: as §1

Mycoplasma hyorhinis = test: MIC, broth-dilution microtiter test, Mycoplasma hyorhinis; assay type: cell-based
Text: as §1

[14] = system: Streptococcus pyogenes C203; test: In vivo protection of mice experimentally infected with S. pyogenes C203; details: Streptococcus pyogenes, mice, doses given 1 and 4 hours post-infection
Procedure: The C-20 modified derivatives of this invention have shown in vivo antimicrobial activity against experimentally-induced infections in laboratory animals. When two doses of test compound were administered to mice experimentally infected with S. pyogenes C203, the activity observed was measured as an ED50 value [effective dose in mg/kg to protect 50% of the test animals: see Warren Wick, et al., J. Bacteriol. 81, 233-235 (1961)].

[15] = system: Streptococcus Group D X66; test: MIC, standard agar-dilution assay, Streptococcus Group D X66; assay type: cell-based
[16] = Pasteurella multocida 60A, avian isolate, broth-dilution microtiter, read-out: MIC
[17] = Mycoplasma hyorhinis, broth-dilution microtiter, read-out: MIC
[18] = Haemophilus influenzae Holt, ampicillin-sensitive strain, read-out: MIC
[19] = Streptococcus bovis 80, broth-dilution microtiter, read-out: MIC
[20] = Pasteurella multocida 17E, bovine isolate, broth-dilution microtiter, read-out: MIC
[21] = Mycoplasma synoviae, broth-dilution microtiter, read-out: MIC
[22] = broth-dilution microtiter, read-out: MIC
[23] = Mycoplasma gallisepticum, broth-dilution microtiter, read-out: MIC

Row | Structure (SMILES) | MIC [1] | MIC [2] | MIC [3] | MIC [4] | MIC [5] | MIC [6] | MIC [7] | MIC ([8]; Streptococcus pneumoniae) | MIC (Streptococcus Group 9960) | MIC ([9]; Haemophilus influenzae) | MIC [10] | MIC (Staphylococcus aureus) | MIC [12, 16] | MIC [13] | MIC (Mycoplasma gallisepticum) | MIC (Mycoplasma hyorhinis; [17]) | MIC [15] | MIC (Streptococcus bovis 80; [19]) | MIC [11, 20] | MIC (Mycoplasma synoviae; [21]) | also measured
1 | CCC1OC(=O)CC(O)C(C)C(OC2OC(C)C(OC3CC(C)(O)C(O)C(C)O3)C(N(C)C)C2O)C(CCN2C(=O)c3ccccc3C2=O)CC(C)C(=O)C=CC(C)=CC1COC1OC(C)C(O)C(OC)C1OC (stereo not drawn) [Compound 1, 20-DH-DO-20-N-Phthalimidotylosin] | 1 mg/L (≈ 0.955 µM) | 1 mg/L (≈ 0.955 µM) | 2 mg/L (≈ 1.91 µM) | 1 mg/L (≈ 0.955 µM) | 1 mg/L (≈ 0.955 µM) | 1 mg/L (≈ 0.955 µM) | 2 mg/L (≈ 1.91 µM) | 32 mg/L (≈ 30.6 µM) | 128 mg/L (≈ 122 µM) | > 128 mg/L | > 128 mg/L | 6.25 mg/L (≈ 5.97 µM) | > 50 mg/L | > 50 mg/L | 3.12 mg/L (≈ 2.98 µM) | > 50 mg/L | – | – | – | – | MIC (Streptococcus bovis 80; 80): 50 mg/L (≈ 47.7 µM); MIC ([11]; Pasteurella multocida, 17E): > 50 mg/L; MIC (Mycoplasma synoviae): 6.25 mg/L (≈ 5.97 µM); ED50 ([14]; C203, sc, subcutaneous, read-out: ED50, Subcutaneous): > 6.3 mg/kg; ED50 ([14]; C203, oral, read-out: ED50, Oral): 71 mg/kg
2 | CCOC(=O)NN(CCC1CC(C)C(=O)C=CC(C)=CC(COC2OC(C)C(O)C(OC)C2OC)C(CC)OC(=O)CC(O)C(C)C1OC1OC(C)C(OC2CC(C)(O)C(O)C(C)O2)C(N(C)C)C1O)C(=O)OCC (stereo not drawn) [Compound 9, 20-DH-DO-20-[N-(Ethoxycarbonyl)-N-(ethoxycarbonylamino)]aminotylosin] | 2 mg/L (≈ 1.86 µM) | 2 mg/L (≈ 1.86 µM) | 8 mg/L (≈ 7.43 µM) | 2 mg/L (≈ 1.86 µM) | 4 mg/L (≈ 3.72 µM) | 2 mg/L (≈ 1.86 µM) | 16 mg/L (≈ 14.9 µM) | 2 mg/L (≈ 1.86 µM) | > 128 mg/L | – | > 128 mg/L | 6.25 mg/L (≈ 5.81 µM) | > 50 mg/L | > 50 mg/L | 1.56 mg/L (≈ 1.45 µM) | > 50 mg/L | > 128 mg/L | > 50 mg/L | > 50 mg/L | 25 mg/L (≈ 23.2 µM) | MIC [9, 18]: > 128 mg/L
3 | CCC1OC(=O)CC(O)C(C)C(OC2OC(C)C(OC3CC(C)(O)C(O)C(C)O3)C(N(C)C)C2O)C(CCOC(=O)COc2ccccc2)CC(C)C(=O)C=CC(C)=CC1COC1OC(C)C(O)C(OC)C1OC (stereo not drawn) [Compound 11, 20-DH-20-O-(Phenoxyacetyl)tylosin] | 0.5 mg/L (≈ 0.475 µM) | 0.5 mg/L (≈ 0.475 µM) | 1 mg/L (≈ 0.95 µM) | 0.5 mg/L (≈ 0.475 µM) | 0.5 mg/L (≈ 0.475 µM) | 0.5 mg/L (≈ 0.475 µM) | 0.5 mg/L (≈ 0.475 µM) | 0.5 mg/L (≈ 0.475 µM) | 8 mg/L (≈ 7.6 µM) | > 128 mg/L | > 128 mg/L | – | > 50 mg/L | > 50 mg/L | – | > 50 mg/L | 8 mg/L (≈ 7.6 µM) | 3.12 mg/L (≈ 2.97 µM) | > 50 mg/L | 3.12 mg/L (≈ 2.97 µM) | MIC (Staphylococcus aureus; [22]): 1.56 mg/L (≈ 1.48 µM); MIC (Mycoplasma gallisepticum; [23]): 1.56 mg/L (≈ 1.48 µM)
4 | CCC1OC(=O)CC(O)C(C)C(OC2OC(C)C(O)C(N(C)C)C2O)C(CCO[N+](=O)[O-])CC(C)C(=O)C=CC(C)=CC1COC1OC(C)C(O)C(OC)C1OC (stereo not drawn) [Compound 28, 20-DH-20-O-NO2-desmycosin] | 0.25 mg/L (≈ 0.305 µM) | 0.25 mg/L (≈ 0.305 µM) | 0.25 mg/L (≈ 0.305 µM) | 0.25 mg/L (≈ 0.305 µM) | 0.25 mg/L (≈ 0.305 µM) | 0.25 mg/L (≈ 0.305 µM) | 0.25 mg/L (≈ 0.305 µM) | – | 8 mg/L (≈ 9.77 µM) | – | 16 mg/L (≈ 19.5 µM) | – | – | 25 mg/L (≈ 30.5 µM) | – | – | – | 12.5 mg/L (≈ 15.3 µM) | 25 mg/L (≈ 30.5 µM) | 0.78 mg/L (≈ 0.952 µM) | MIC ([8]; Streptococcus pneumoniae Park I, agar dilution, read-out: MIC): 2 mg/L (≈ 2.44 µM); MIC ([15]; Streptococcus Group D X66, agar dilution, read-out: MIC): 8 mg/L (≈ 9.77 µM); MIC [9, 18]: 16 mg/L (≈ 19.5 µM); MIC (Staphylococcus aureus; [22]): 1.56 mg/L (≈ 1.9 µM); MIC ([12]; Pasteurella multocida, 60A): 50 mg/L (≈ 61.1 µM); MIC (Mycoplasma gallisepticum; [23]): 0.78 mg/L (≈ 0.952 µM); MIC (Mycoplasma hyorhinis; Mycoplasma): 50 mg/L (≈ 61.1 µM)
